Laboratory results from US20090117170A1, “SEGMENTED DEVICE FOR THE DELAYED RELEASE OF MOLECULES IN A TANGENTIAL DIRECTION THROUGH THIN FILMS AND USES THEREOF” (CAPSULUTION NANOSCIENCE AG, priority 2004, published 2009).

Assays:
[1] = enalaprilate release from segmented silicon disc release apparatus; format: physicochemical
Description: A release apparatus was produced from round silicon discs (outer diameter 14.0 mm, thickness 0.525 mm) having a very low surface roughness. The release apparatus consisted of 15 discs having a core drilling (diameter=8 mm), a silicon disc without a core drilling as a cover plate and a base plate having closable openings for filling. A silicon disc having a core drilling was glued onto the base plate of titanium. The release apparatus was assembled underwater and fixed by means of a holder. Subsequently, the reservoir was emptied through the reclosable openings in the base plate before the release apparatus was filled with an enalaprilate suspension.
As in Example 3, a release apparatus was produced from round silicon discs (outer diameter 14.0 mm, thickness 0.525 mm), the silicon discs being coated with polyelectrolyte multilayers. Before the assembly of the release apparatus, the silicon discs were coated with a 16 PAH/PSS layer.
As in Example 4, a release apparatus was produced from round coated silicon discs (outer diameter 14.0 mm, thickness 0.525 mm), 25 discs having a core drilling being used.

[2] = ibuprofen release from segmented glass release apparatus in phosphate saline buffer; format: physicochemical; settings: 10 intersegment films, 37° C., phosphate saline buffer pH 7.4 with sodium azide
Method: A release apparatus was produced from glass discs 3 to 11 (soda-lime glass, edge lengths 26.0×26.0 mm, disc thickness of 1.0 mm) having a surface roughness of 0.172-1.39 Ra (see FIGS. 7A and 7B). The release apparatus consisted of 9 discs (26.0×26.0 mm) having a core drilling 13 (diameter=8 mm) and was closed off on both sides by two discs without a core drilling. Separate intersegment films were not used. A reservoir volume of theoretically 452.4 μl results in the case of 9 discs having a core drilling and a disc thickness of 1.0 mm. The release apparatus was filled with a model substance before closing (100 mg of crystalline ibuprofen) and the remaining reservoir volume was subsequently filled with release medium. Following this, the release behavior of the model substance was investigated at 37° C. in phosphate saline buffer pH 7.4 with addition of sodium azide. FIGS. 7C and 7D show the ibuprofen release from the segmented glass apparatus having 10 intersegment films in phosphate saline buffer pH 7.4 with addition of sodium azide. […] A release apparatus consisting of glass discs (soda-lime glass, edge lengths 26.0×26.0 mm, disc thickness of 1.0 mm) having a surface roughness of 0.172-1.39 Ra was produced (see FIGS. 7A and 7B), the discs being modified by a separating film covering only the outer edges of the discs such that an intersegment film thickness (hollow space) of about 50 μm was present. The release apparatus consisted of 9 discs 3 to 11 (26.0×26.0 mm) having a core drilling 13 (diameter=8 mm) and was closed off on both sides by two discs without a core drilling. Before closing, the release apparatus was filled with a model substance (100 mg of crystalline ibuprofen) and the remaining reservoir volume was subsequently filled with release medium. Following this, the release behavior of the model substance was investigated at 37° C. in phosphate saline buffer pH 7.4 with addition of sodium azide. […]

With `C[C@H](N[C@@H](CCc1ccccc1)C(=O)O)C(=O)N1CCC[C@H]1C(=O)O` [enalaprilate] the release rate ([1]; Example 3: uncoated silicon discs, 15 intersegment films, enalaprilate suspension) was “about 150 μg per day”, the release rate ([1]; Example 4: silicon discs coated with 16 PAH/PSS layer, 15 modified intersegment films) was “about 75 μg per day” and the release rate ([1]; Example 5: coated silicon discs, 25 modified intersegment films) was “about 140 μg per day”.
With `CC(C)Cc1ccc(C(C)C(=O)O)cc1` (stereo not drawn) [ibuprofen] the “release rate of the model substance (constant release behavior)” value ([2]; Example 1: glass apparatus, no separate films, 100 mg crystalline ibuprofen) was “about 65 μg/d”, the “duration of constant release behavior” value ([2]; Example 1: glass apparatus, no separate films) was “more than 100 days” and the “release rate of the model substance” value ([2]; Example 2: glass apparatus, modified film thickness (hollow space) about 50 μm, 100 mg crystalline ibuprofen, for 10 to 100 days) was “about 0.6 mg/d”.
